No end group written: not given here.
Columns and labels:
[1] = test system: Plasmodium gallinaceum sporozoites; test: Antiplasmodial activity, fluorescence microscopy; type: cell-based
Procedure: Method. The activity of the peptides against Plasmodium gallinaceum sporozoites was determined by fluorescence microscopy, as previously described by Silva et. al.^83. Briefly, 9,000 sporozoites were isolated from the glands of infected Aedes aegypti mosquitos and incubated with serially diluted peptides (ranging from 0.1 to 1.6 μmol L^−1) at 37° C. for 1 h. A PBS solution and the surfactant digitonin^84, 85 were used as negative and positive controls, respectively. Propidium iodide was used to stain dead cells. Assays were executed using fluorescence microscopy. Three biological repeats each with three different mosquito batches (n=9) were used.

[2] = test system: B. megaterium ATCC 10778; test: Liquid growth inhibition assay, MIC; type: cell-based, Bacillus megaterium; settings: 37° C., 18 h
Procedure, shortened: (§1)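 Two-fold peptide dilutions (0.09-50 μmol L^−1) in Peptone Broth (bacteria) or Potato Dextrose Broth (fungi), incubated at 37° C. for 18 h (bacteria) or 24 h (fungi). Growth read by absorbance at 595 nm; three biological repeats.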

[3] = test system: M. luteus A270; test: Liquid growth inhibition assay, MIC; type: cell-based, Micrococcus luteus; settings: 37° C., 18 h
Procedure, shortened: as §1

[4] = test system: S. marcescens ATCC 4112; test: Liquid growth inhibition assay, MIC; type: cell-based, Serratia marcescens; settings: 37° C., 18 h
Procedure, shortened: as §1

[5] = test system: S. epidermidis ATCC 12228; test: Liquid growth inhibition assay, MIC; type: cell-based; settings: 37° C., 18 h
[6] = test system: A. baumannii ATCC19606; test: Broth microdilution MIC, ESKAPE pathogens; type: cell-based; settings: LB, 37° C., 24 h
Procedure: (§2) Method. The minimal inhibitory concentration (MIC) against the ESKAPE pathogens was determined using the broth microdilution method^81, 82 in Luria-Bertani (LB) medium. The MIC value was defined as the lowest concentration of peptide at which no microbial growth was observed. A. baumannii ATCC19606, E. coli ATCC11775, E. coli AIC221, E. coli AIC222, K. pneumoniae ATCC13883, S. aureus ATCC12600 P. aeruginosa PAO1, and P. aeruginosa PA14 were incubated on agar plates, and after 24 h, three isolated colonies were inoculated to 5 mL of Luria-Bertani (LB) broth and maintained at 37° C. overnight with shaking. Peptides were then added to 96-well polystyrene microtiter plates at concentrations ranging from 0 to 128 μmol L^−1, and 5×10^5 CFU mL^−1 of each bacterium was inoculated in each well. The plates were incubated at 37° C. for 24 h. Bacterial growth was measured using a microplate reader at 610 nm. Three independent replicates were performed.

[7] = test system: E. coli AIC221; test: Broth microdilution MIC, ESKAPE pathogens; type: cell-based; settings: LB, 37° C., 24 h
Procedure: as §2

[8] = test system: S. aureus ATCC12600; test: Broth microdilution MIC, ESKAPE pathogens; type: cell-based; settings: LB, 37° C., 24 h
Procedure: as §2

[9] = test system: P. aeruginosa PA14; test: Broth microdilution MIC, ESKAPE pathogens; type: cell-based; settings: LB, 37° C., 24 h
Procedure: as §2

[10] = test system: K. pneumoniae ATCC13883; test: Broth microdilution MIC, ESKAPE pathogens; type: cell-based; settings: LB, 37° C., 24 h
Procedure: as §2

[11] = test system: E. coli AIC222; test: Broth microdilution MIC, ESKAPE pathogens; type: cell-based; settings: LB, 37° C., 24 h
Procedure: as §2

[12] = test system: E. coli ATCC11775; test: Broth microdilution MIC, ESKAPE pathogens; type: cell-based; settings: LB, 37° C., 24 h
Procedure: as §2

[13] = test system: P. aeruginosa PAO1; test: Broth microdilution MIC, ESKAPE pathogens; type: cell-based; settings: LB, 37° C., 24 h
Procedure: as §2

[14] = test system: C. tropicalis IOC 4560; test: Liquid growth inhibition assay, MIC (antifungal); type: cell-based, Candida tropicalis; settings: 37° C., 24 h
Procedure, shortened: as §1

[15] = test system: E. cloacae β-12; test: Liquid growth inhibition assay, MIC; type: cell-based, Enterobacter cloacae; settings: 37° C., 18 h
Procedure, shortened: as §1

[16] = test system: human erythrocytes; test: Hemolytic activity assay; type: cell-based; settings: human erythrocytes, 1 h
Procedure, shortened: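 Fresh heparinised human erythrocytes incubated with peptide at 0.1 to 100 μmol L−1 for 1 h at room temperature; supernatant absorbance at 405 nm after centrifugation. MHC taken as highest concentration with 100% erythrocytes viable; SDS and PBS as positive and negative controls, three biological repeats.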

[17] = Circular dichroism, helical fraction (Lifson-Roig); type: physicochemical; settings: peptide 50 μmol L^−1
Procedure: Method. Circular dichroism (CD) assays were performed with a Spectropolarimeter Jasco Mod. J-815 (JascoCorp). CD spectra were obtained in Far-UV (195-260 nm), and analyzed in the following solutions: water, 2,2,2-trifluoroethanol (TFE) in water (3:2, v:v), phosphate buffer saline (PBS, 10 mmol L^−1, pH 7.4), sodium dodecyl sulfate (SDS 20 mmol L^−1) in water, palmitoyloleoylphosphatidylcholine (POPC; 10 mmol L^−1), palmitoyloleoylphosphatidylcholine:dioleylphosphatidylethanolamine (POPC:DOPE; 3:1, mol:mol, 10 mmol L^−1) and palmitoyloleoylphosphatidylcholine:palmitoyloleoylphosphatidylglycerol (POPC:POPG; 3:1, mol:mol, 10 mmol L^−1) at a peptide concentration of 50 μmol L^−1. These experiments were performed as described in detail by Pedron et al.^62.

[18] = test system: C. albicans MDM8; test: Liquid growth inhibition assay, MIC (antifungal); type: cell-based, Candida albicans; settings: 37° C., 24 h
Procedure, shortened: as §1

What does the source list for “FLPLLWRVASGVF-NH2 [VT, Phe-Leu-Pro-Leu-Leu-Trp-Arg-Val-Ala-Ser-Gly-Val-Phe]”?
P. gallinaceum (% sporozoites at 0.8 μmol L^−1) ([1]; 0.8 μmol L^−1, fluorescent (propidium iodide stained) sporozoites, 37° C., 1 h): 2%; antiplasmodial activity ([1]; P. gallinaceum sporozoites, concentration range tested): did not exhibit significant antiplasmodial activity; MIC B. megaterium ATCC 10778 [2]: 6.3 µmol/L; MIC M. luteus A270 [3]: 3.1 µmol/L; MIC S. marcescens ATCC 4112 [4]: 12.5 µmol/L; MIC S. epidermidis ATCC 12228 [5]: >50 µmol/L; MIC A. baumannii ATCC19606 [6]: 16 µmol/L; MIC E. coli AIC221 [7]: 128 µmol/L; MIC S. aureus ATCC12600 [8]: 4 µmol/L; MIC P. aeruginosa PA14 [9]: 128 µmol/L; MIC K. pneumoniae ATCC13883 [10]: 128 µmol/L; MIC E. coli AIC222 [11]: 32 µmol/L; MIC E. coli ATCC11775 [12]: 64 µmol/L; MIC P. aeruginosa PAO1 [13]: 128 µmol/L; MIC C. tropicalis IOC 4560 [14]: 25 µmol/L; MIC E. cloacae β-12 [15]: >50 µmol/L; Hemolytic activity, concentration of peptide needed to kill 10% of red blood cells [16]: 0.2 µmol/L; MHC ([16]; room temperature, concentration with approximately 0% of hemolytic activity): 0.2 µmol/L; Helical fraction (fH) PBS ([17]; PBS 10 mmol L^−1, pH 7.4): 0.18; Helical fraction (fH) POPC ([17]; POPC 10 mmol L^−1): 0.45; Helical fraction (fH) POPC:DOPE ([17]; POPC:DOPE 3:1, mol:mol, 10 mmol L^−1): 0.42; Helical fraction (fH) POPC:POPG ([17]; POPC:POPG 3:1, mol:mol, 10 mmol L^−1): 1.00; Helical fraction (fH) SDS ([17]; SDS 20 mmol L^−1 in water): 0.82; Helical fraction (fH) TFE/Water ([17]; TFE in water (3:2, v:v)): 1.00; Helical fraction (fH) Water ([17]; water): 0.21; MIC C. albicans MDM8 [18]: 12.5 µmol/L

Source: patent US20260250337A1, “HYBRID ANTIMICROBIAL PEPTIDES” (UNIVERSIDADE FEDERAL DO ABC, priority 2023, published 2026)
